Experimental data from ChEMBL document CHEMBL5143525, “N-methylated diazabicyclo[3.2.2]nonane substituted triterpenoic acids are excellent, hyperbolic and selective inhibitors for butyrylcholinesterase” (Eur J Med Chem, 2022).
Activity calls are given as the source filed them. The rule behind the calls is not given here.

Molecular target: Cholinesterase (Equus caballus) (UniProt P81908)
Test: Mixed type inhibition of equine serum BuChE by Dixon plot analysis

Chain of Cholinesterase (Equus caballus) (P81908 whole entry): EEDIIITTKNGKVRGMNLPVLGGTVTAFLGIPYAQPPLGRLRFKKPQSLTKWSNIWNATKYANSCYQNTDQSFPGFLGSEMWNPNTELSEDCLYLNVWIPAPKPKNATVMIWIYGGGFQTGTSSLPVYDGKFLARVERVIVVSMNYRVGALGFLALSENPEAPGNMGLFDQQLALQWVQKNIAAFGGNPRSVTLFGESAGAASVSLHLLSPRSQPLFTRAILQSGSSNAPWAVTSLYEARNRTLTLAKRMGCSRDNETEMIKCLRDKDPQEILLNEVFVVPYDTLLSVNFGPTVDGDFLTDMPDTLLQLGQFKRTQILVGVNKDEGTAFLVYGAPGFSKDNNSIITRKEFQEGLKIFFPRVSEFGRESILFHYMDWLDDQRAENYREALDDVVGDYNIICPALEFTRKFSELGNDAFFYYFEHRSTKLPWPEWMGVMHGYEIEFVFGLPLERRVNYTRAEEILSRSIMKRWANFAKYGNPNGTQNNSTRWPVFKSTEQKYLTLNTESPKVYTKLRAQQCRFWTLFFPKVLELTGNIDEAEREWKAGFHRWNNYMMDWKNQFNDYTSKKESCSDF

Row | SMILES | inhibition mechanism
1 | C=C(C)[C@@H]1CC[C@]2(C(=O)N3CC4CC[N+](C)(CC4)C3)CC[C@]3(C)[C@@H](CC[C@@H]4[C@@]5(C)CC[C@H](OC(C)=O)C(C)(C)[C@@H]5CC[C@]43C)[C@H]12 | Active
2 | CC(=O)O[C@H]1CC[C@]2(C)[C@H]3CC=C4[C@@H]5[C@@H](C)[C@H](C)CC[C@]5(C(=O)N5CC6CC[N+](C)(CC6)C5)CC[C@@]4(C)[C@]3(C)CC[C@H]2C1(C)C | Active
3 | CC(=O)O[C@H]1CC[C@]2(C)[C@H]3C(=O)C[C@H]4[C@@H]5C[C@@](C)(C(=O)N6CC7CC[N+](C)(CC7)C6)CC[C@]5(C)CC[C@@]4(C)[C@]3(C)CC[C@H]2C1(C)C | Active
4 | CC(=O)O[C@H]1CC[C@]2(C)[C@H]3CC[C@H]4[C@@H]5[C@H](C(C)=O)CC[C@]5(C(=O)N5CC6CC[N+](C)(CC6)C5)CC[C@@]4(C)[C@]3(C)CC[C@H]2C1(C)C | Active
5 | CC(=O)O[C@H]1CC[C@]2(C)[C@H]3CC=C4[C@@H]5CC(C)(C)CC[C@]5(C(=O)N5CC6CC[N+](C)(CC6)C5)CC[C@@]4(C)[C@]3(C)CC[C@H]2C1(C)C | Active
